The test system of one data set is human scalp (dandruff). Description: In vivo scalp health study: adherent scalp flaking score (ASFS). As to the method: Subjects are enrolled in a double-blind, randomized study for all test groups and have Baseline and Week 3 measurements of scalp health taken for flaking, itch and scalp health endpoints. Subjects take home a test product(s) and are instructed on use of test products throughout the study. Test products are solubilized in a hydroalcoholic leave-on formulation. Azoxystrobin raw material is sourced from AK Scientific Inc. (Union City, Calif.) as >97% pure. Azoxystrobin scalp treatment is prepared from a slurry of azoxystrobin in ethanol that is formulated to 0.1% (w/v) in a base chassis of 50% ethanol, 0.35% Ultrez 21 (rheology modifier), 0.05% neutrol TE and water (q.s.). Vehicle scalp treatment is prepared similarly without the addition of azoxystrobin raw material. Subjects apply either azoxystrobin or vehicle scalp treatments daily for 3 weeks. Grading of the scalp is performed by qualified expert graders for adherent scalp flaking scores (ASFS) as described in published methods. Detailed methods can be found in Journal of Dermatological Treatment 2014, 25, 232-236, incorporated by reference herein. Briefly, flaking severity of a subject is assessed by examination of the scalp which is illuminated by lighting that mimics daylight conditions. The scalp is divided into eight sections and each section is assessed for the presence of dandruff flakes that are adhering to the scalp skin using a 0 to 10 (increment of 2 units) scale. Loose flakes in the hair are not considered in the grading. The final, or total, ASFS is the sum of the grades for all eight scalp sections, which results in a scale ranging from 0 to 80 units. The change in flaking across time is reported as change from baseline at the 3-week time point.

For data set [1] the following is noted: cited from earlier work.
The subject of data set [2] is Malassezia furfur (CBS 7982). Description: In vitro evaluation of antifungal potency (MIC). The class given is cell-based. As to the method:
Malassezia furfur (CBS 7982) is grown for approximately 24 hours in a 250 ml vent cap polycarbonate Erlenmeyer flask containing approximately 100 ml of mDixon medium and 5 ml of a fully grown M. furfur culture prepared using the same conditions as described. The cells are diluted by mixing 2.5 ml of the 24 hour-old culture per 50 ml of mDixon medium. A Versette robot (ThermoFisher Scientific) is used to transfer 292.5 μl of the dilute cells into each well of a Beckman 267007 polypropylene round bottom deep well plate. All compounds are sourced from Sigma Aldrich (St. Louis, Mo.) and prepared as 10 mg/ml in DMSO. A semipermeable aeraseal membrane is applied to the plate which is then be covered with water-soaked cotton batting. The samples are be shaken at 31° C. on a Heidolph Titramax 100 shaker at 1500 rpm for approximately 72 hours. The plates are shaken at 1250 rpm on an Eppendorf MixMate shaker to disperse the cells before transferring 200 μl to a Corning 3596 polystyrene plate. The samples are shaken again at 950 rpm on a MixMate shaker before the absorbance at 600 nm is read using a Molecular Devices SpectraMax plate reader.

The test system of a further data set is keratin 1, keratin 10. Kind of data set: Scalp tape strip barrier integrity: keratins 1 and 10. The class given is in vivo, human. As to the method: Subjects are enrolled in a double-blind, randomized study for all test groups and have Baseline and Week 3 measurements of scalp health taken for flaking, itch and scalp health endpoints. Subjects take home a test product(s) and are instructed on use of test products throughout the study. Test products are solubilized in a hydroalcoholic leave-on formulation. Azoxystrobin raw material is sourced from AK Scientific Inc. (Union City, Calif.) as >97% pure. Azoxystrobin scalp treatment is prepared from a slurry of azoxystrobin in ethanol that is formulated to 0.1% (w/v) in a base chassis of 50% ethanol, 0.35% Ultrez 21 (rheology modifier), 0.05% neutrol TE and water (q.s.). […] Biomarkers of scalp health, including biomarkers of inflammation, itch, oxidative stress and barrier integrity are assessed by non-invasive tape strip sampling of the scalp surface to determine therapeutic resolution. All biomarkers are analyzed from D-Squame® scalp tape samples that are collected from the scalp of subjects before and after scalp treatment with either azoxystrobin or vehicle (Baseline, and Week 3 respectively). These are extracted and analyzed according to published methods (International Journal of Dermatology 2011, 50, 102-113, incorporated by reference herein). […] Biochemical markers of skin/scalp barrier integrity are analyzed to evaluate improvements on barrier health. […]

Marks after values point to notes of the source that are not given here.

`CO/C=C(/C(=O)OC)c1ccccc1Oc1cc(Oc2ccccc2C#N)ncn1` [Azoxystrobin]: the “Flaking Results (ASFS Change from Baseline)” value in the data set with human scalp (dandruff) (0.1% (w/v) hydroalcoholic leave-on, daily, 3 weeks, dandruff subjects, scale 0 to 80) is listed as −13.88. Moreover, the reduction in flaking with human scalp (dandruff) (after 3 weeks of treatment) is 45%. Moreover, the “ASFS reduction more than the placebo” value with human scalp (dandruff) (after 3 weeks of treatment, p=0.002) worked out at 4.7 units. The solubility in water entry in data set [1] is reported as “low solubility in water”. Moreover, the “MIC value, Malassezia furfur” value in data set [2] (M. furfur CBS 7982, mDixon medium, 31° C., approximately 72 hours, absorbance at 600 nm) is 0.39-0.49 ppm. Besides, in data set [2] (Malassezia furfur MIC ratio), the “times more potent than pyraclostrobin (MIC)” value came out at 4 times and the “times more potent than zinc pyrithione (MIC)” value worked out at 8 times. For the same compound, in the data set on keratin 1, keratin 10 (0.1% leave-on daily, Week 3, scalp tape strips), the “Keratins-1,10 % Change from Baseline” value is given as “+86.0* %”. In addition, the “increase in keratins 1 and 10” value in the data set on keratin 1, keratin 10 (compared to a placebo control) was 86%.

The values above are taken from patent publication US20220192955A1, “AZOXYSTROBIN EFFICACY IN SCALP HEALTH” (The Procter & Gamble Company, priority 2020, published 2022).
